In patent publication US6906108B2, “Extracts of vetiver oil as repellent and toxicant to ants, ticks, and cockroaches” (Board of Supervisors of Louisiana State University and …, priority 2001, dated 2005):

Legend:
[1] = system: Imported red fire ants, Solenopsis invicta; assay: Fire ant three-chambered container bioassay with treated sand (repellency and mortality); format: in vivo; settings: for Percent ants in the sand area after 15 min / Number of ants (% ± SE) in the sand area after 15 min (test after 40 days): mean ± SE; for Living ants found in the sand area over seven days: FIG. 1; for Living ants found in the sand area over 7 days: FIG. 3
Excerpt: Nootkatone was purchased from a commercial source (Lancaster Synthesis Inc. Windham, N.H.). The source of the vetiver oil was The Good Scents Company (Oak Creek, Wis.). Three-chambered clear plastic containers (17×8×4 cm; Pioneer Packaging Co., North Dixon, Ky.) were used to test the effect of nootkatone and vetiver oil on the fire ants. Each rectangular container (17×8×4 cm) was divided into three equal compartments with two inner walls. A small hole (0.5 cm diameter) was melted at the bottom of each of the inner walls to permit fire ant access to all chambers. The top inner sides of the containers were coated with FLUON® (Northern Products, Inc., Woonsocket, R.I.) to prevent ants from escaping. Into the far left chamber, designated the “nest area,” was placed a 55 mm #2 Whatman filter paper circle (Whatman International, Maidstone, England) moistened with 0.5 ml ddH2O to serve as a substrate. For a food source, a second 55 mm #2 Whatman filter paper circle was moistened with 0.5 ml 10% sucrose solution and placed in the far right chamber (“feeding area”). In the middle chamber, 30 g of #4 fine blasting sand (Easy Crete, Inc., Greenwell Springs, La.) moistened with 3 ml ddH2O was added. The sand had previously been treated by mixing with ethanol only (the controls) or with ethanol and solutions of nootkatone or vetiver oil to obtain final concentrations of 10 μg/g sand and 100 μg/g sand. The treated sand was allowed to air-dry for 2 hr in a ventilated hood before placing into the container.
Imported red fire ants, Solenopsis invicta, were collected the day before beginning the experiment from two Louisiana colonies (Colony A and Colony B) whose nests were 50 m apart. For each container, 30 workers were placed in the nest area in a small Petri dish (3.5 cm diameter) with the lid closed initially. The total number of containers was 30; 15 for each colony. For each colony, three replicates were established for each of the following treatments: a control; 10 μg/g nootkatone ([…]), 100 μg/g nootkatone (“Noot-100”), 10 μg/g vetiver oil (“Vet-10”), […].
After the ants were acclimated, the lid on the Petri dish was removed. Ant behavior was observed during the first 15 min for the following: time for the first ant to cross into the middle chamber; time for the first ant to cross into the feeding area; and number of ants in the middle chamber after 5, 10, and 15 min. The plastic containers were kept closed with lids in a thermostatic chamber at 27° C. for one week. Each day at the same time, the numbers of live and dead ants in each chamber were noted.
To test for effectiveness of nootkatone and vetiver oil after the passage of time, the above experiment was repeated 40 days later with sand that had been treated at the same time as the above experiment. For 40 days, the sand had been maintained in separate chambers with non-hermetic lids in a dark room at room temperature. For this second experiment, fire ants were freshly collected from two different Louisiana colonies.
The number of ants, expressed as a percent of the total number in the container, found in the treated area after the first 15 minutes was compared using a two-way ANOVA followed by Newman-Keuls post-hoc test, considering the factors “colony” (A, B) and “treatment” (Control, Noot-100, Noot-10, Vet-100, Vet-10). Data for both the number of live and dead ants (expressed as percent of the total) during the seven days of the experiment were analyzed with 2-way ANOVA for repeated measures followed by Newman-Keuls post-hoc tests, considering the variables “colony” and “treatment” and the variable “day” as the repeated factor. All data were analyzed using Statistica 5.5 (1999 edition, Statsoft Inc., Tulsa, Okla.).

[2] = system: ticks (Ixodes scapularis); assay: Tick Petri dish bioassay with treated sand (repellency and toxicity); format: in vivo
Description: To test the effectiveness of nootkatone against ticks, ticks (Ixodes scapularis) were collected from Idlewild, La. Nootkatone efficiacy was tested relative to a known repellent, N,N-diethyl-m-toluamide (“Deet”). REPEL®, which contains 27.55% Deet, was purchased locally from a retail garden store.
The bioassay was conducted using Petri dishes (5 cm diameter and 1 cm height). To ensure adequate moisture for the ticks, 1 ml of a hot agar solution (1.5% in H2O) was spread evenly on the inside surfaces of the Petri dish, including the top, bottom, and edges. After the agar cooled, sand that was treated as described below was spread evenly on the inside surfaces of the Petri dish. The sand was held in place by the agar.
For the treated sand, either 2 mg nootkatone or 100 mg REPEL® was initially dissolved in 2 ml ethanol, and then 200 μl of the solution was mixed with 2 g sand that had been autoclaved and cooled. The control was autoclaved sand with 200 μl ethanol only added. One half of the surfaces in the Petri dishes were covered with 2 g treated sand, and the other half with 2 g untreated sand. In the nootkatone-treated Petri dishes, the final concentration was 200 μg/dish; while in the Deet treated Petri dishes, the final concentration was 2.75 mg/dish. Control Petri dishes were prepared by covering all sides with untreated sand. One tick was added to each Petri dish, and the top replaced. The number of replicates were as follows: control, 6; nootkatone, 9; and Deet, 8. […] Repellent activity was noted if the tick was found on the untreated side of the Petri dish. The ticks in the control Petri dishes were randomly distributed on the left and right sides.
The above experiment was repeated with ticks (Ix. scapularis) collected from Hammond, La. The number of replicates in this experiment were as follows: controls, 8; nootkatone, 10; and Deet, 8.

[3] = 200 μg/dish vs 2.75 mg/dish Deet
[4] = 200 μg/dish, 10 replicates, ticks from Hammond
[5] = 200 μg/dish, ticks from Hammond

Q: For C=C(C)C1CCC2=CC(=O)CC(C)C2(C)C1 (stereo not shown) [nootkatone, 4,4a,5,6,7,8-hexahydro-6-isopropenyl-4,4a-dimethyl-2(3H)-naphthalone], which “Percent ants in the sand area after 15 min” value ([1]; 10 μg/g sand, sand treated 2 hr prior) is on record?
A: 23.89 ± 3.35 b %

Q: What about the “Number of ants (% ± SE) in the sand area after 15 min (test after 40 days)” value ([1]; 10 μg/g sand, sand treated 40 days prior) of the same molecule?
A: 26.11 ± 3.07 b %

Q: And the “Percent ants in the sand area after 15 min” value ([1]; 100 μg/g sand, sand treated 2 hr prior)?
A: 13.33 ± 2.42 b %

Q: And the “Number of ants (% ± SE) in the sand area after 15 min (test after 40 days)” value ([1]; 100 μg/g sand, sand treated 40 days prior)?
A: 13.89 ± 1.99 b %

Q: What about the “Living ants found in the sand area over seven days” value ([1]; highest concentration (100 μg/g), sand treated 2 hr prior) of the same molecule?
A: Almost no ants

Q: And the “Cumulative mortality over 7 days” value ([1]; highest concentration (100 μg/g), sand treated 2 hr prior, FIG. 2)?
A: highest

Q: What about the “Living ants found in the sand area over 7 days” value ([1]; highest concentration (100 μg/g), sand treated 40 days prior) of the same molecule?
A: Almost no ants

Q: What about the “Cumulative mortality over 7 days” value ([1]; highest concentration (100 μg/g), sand treated 40 days prior, FIG. 4) of the same molecule?
A: always greatest

Q: And the “Cumulative mortality over 7 days” value ([1]; lower concentration (10 μg/g), sand treated 40 days prior, compared with highest concentration, FIG. 4)?
A: significantly lower

Q: And the “Living ants found in the sand area over seven days” value ([1]; lowest concentration (10 μg/g), sand treated 2 hr prior, vs controls)?
A: substantially lower numbers of ants

Q: What about the “Living ants found in the sand area over 7 days” value ([1]; lowest concentration (10 μg/g), sand treated 40 days prior, vs controls) of the same molecule?
A: significantly lower numbers of ants

Q: What about the “Effectiveness forty days after the initial application” value ([1]; sand treated 40 days prior) of the same molecule?
A: still effective

Q: And the “Overall activity against ticks” value ([2]; 200 μg/dish)?
A: effective repellent and toxicant

Q: And the “Duration of repellent activity compared with Deet” value [2, 3]?
A: longer than Deet

Q: And the “Toxicant strength compared with Deet” value [2, 3]?
A: stronger toxicant than Deet

Q: What about the “Ticks dead after 90 hr (number)” value ([2]; 200 μg/dish, 9 replicates, one tick per dish, ticks from Idlewild) of the same molecule?
A: four

Q: And the “Ticks dead at 24 hr (number)” value [2, 4]?
A: one

Q: And the “Ticks dead at 72 hr (number)” value [2, 4]?
A: four

Q: What about the “Ticks dead at 96 hr (number)” value [2, 4] of the same molecule?
A: nine

Q: What about the “Ticks dead at 72 hr (percent)” value [2, 5] of the same molecule?
A: 40%

Q: And the “Ticks dead at 96 hr (percent)” value [2, 5]?
A: 90%

Q: And the “Ticks dead after 90 hr (percent)” value ([2]; 200 μg/dish, ticks from Idlewild)?
A: 50%
